# Assay results taken from patent US5985911A, “C-terminal ketone inhibitors of matrix metalloproteinases and TNFα secretion” (Abbott Laboratories, priority 1997, dated 1999).
# Target: T1, stromelysin (Homo sapiens, UniProt P08254)
# T1 construct: made in house; host or cells: E. coli
# Assay: Determination of stromelysin inhibition (thiopeptide ester substrate cleavage, DTNB, microtiter plate)
# Format: biochemical
# Conditions: not given
# Description: The efficacy of the compounds of this invention as matrix metalloproteinase inhibitors was determined by measuring the inhibition of stromelysin. The inhibition of stromelysin by the compounds of this invention was determined as follows: Recombinant truncated stromelysin (human sequence) produced in E. coli was prepared by expression and purification of the protein as described by Ye et al., Biochemistry, 1992, 31, 11231-11235. The enzyme was assayed by its cleavage of the thiopeptide ester substrate Ac-Pro-Leu-Gly-[2-mercapto-4-methyl-pentanoyl]-Leu-Gly-OEt described by Weingarten and Feder, Anal. Biochem., 1985, 147, 437-440 (1985), as a substrate of vertebrate collagenase. The reported conditions were modified to allow assays to be carried out in a microtiter plate. Upon hydrolysis of the thioester bond, the released thiol group reacts rapidly with 5,5'-dithio-bis(2-nitrobenzoic acid) (DTNB), producing a yellow color which is measured by a microtiter plate reader set at 405 nm. The rates of cleavage of the substrate by stromelysin in the presence or absence of inhibitors are measured in a 30 min assay at ambient temperature. Solutions of the compounds in DMSO are prepared, and these are diluted at various concentrations into the assay buffer (50 mM MES/NaOH pH 6.5 with 10 mM CaCl2 and 0.2% Pluronic F-68), which is also used for dilution of the enzyme and substrate. The potency of the compounds [IC50 ] are calculated from the inhibition/inhibitor concentration data.
# T1 sequence (P08254 100-272 limits assumed): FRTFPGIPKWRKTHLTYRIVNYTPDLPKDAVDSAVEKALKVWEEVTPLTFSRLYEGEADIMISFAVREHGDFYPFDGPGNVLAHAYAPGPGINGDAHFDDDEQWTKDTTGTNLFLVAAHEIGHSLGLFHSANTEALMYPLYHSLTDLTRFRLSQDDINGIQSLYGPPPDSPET
row,Structure (SMILES),IC50
1,C=CC[C@H](C(=O)NO)[C@@H](CC(C)C)C(=O)NC(Cc1ccccc1)C(=O)c1cccnc1 (stereo partly drawn) [Example 22],10 nM
2,C=CC[C@H](C(=O)NO)[C@@H](CC(C)C)C(=O)NC(Cc1ccccc1)C(=O)c1nccs1 (stereo partly drawn) [Example 26],220 nM
3,CC(C)C[C@@H](C(=O)N[C@H](Cc1ccccc1)C(=O)c1c[nH]c2ccccc12)[C@H](O)C(=O)NO [Example 13],99 nM

# Same assay, conditions: recombinant truncated stromelysin (human sequence); thiopeptide ester substrate, pH 6.5, 30 min, ambient temperature; read-out: IC50 (Inhibitory Potencies against Stromelysin)
row,Structure (SMILES),IC50
1,C=CC[C@H](C(=O)NO)[C@@H](CC(C)C)C(=O)N[C@@H](CC1CCCCC1)C(=O)c1ccccc1 [Example 20],7.3 nM
2,O=C(C[C@H](C(=O)N[C@@H](Cc1ccc(O)cc1)C(=O)c1ccccc1)C1CCCCC1)NO [Example 33],110 nM
3,C=CC[C@H](C(=O)NO)[C@@H](CC(C)C)C(=O)N[C@@H](Cc1ccccc1)C(C)=O [Example 17],16 nM
4,C=CC[C@H](C(=O)NO)[C@@H](CC(C)C)C(=O)N[C@H](C(=O)c1c[nH]c2ccccc12)C(C)(C)C [Example 9],1.2 nM
5,Cc1ccc(CCC[C@H](CC(=O)NO)C(=O)N[C@@H](Cc2ccccc2)C(=O)c2c[nH]c3ccccc23)cc1 [Example 6],12 nM
6,CC(C)C[C@@H](C(=O)N[C@H](C(=O)c1c[nH]c2ccccc12)C(C)(C)C)[C@H](O)C(=O)NO [Example 14],1.2 nM
7,CC(C)C[C@@H](C(=O)N[C@@H](Cc1ccccc1)C(=O)c1c[nH]c2ccccc12)[C@H](O)C(=O)NO [Example 12],7.8 nM
8,CC(C)C[C@@H](C(=O)N[C@@H](Cc1ccccc1)C(=O)c1c[nH]c2ccccc12)[C@H](O)C(=O)O [Example 10],7100 nM
9,C=CC[C@H](C(=O)NO)[C@@H](CC(C)C)C(=O)N[C@@H](Cc1ccccc1)C(=O)c1ccc[nH]1 [Example 21],1.7 nM
10,C=CCCC[C@H](C(=O)NO)[C@@H](CC(C)C)C(=O)N[C@@H](Cc1ccc(O)cc1)C(=O)c1ccccc1 [Example 19],1.5 nM
11,O=C(c1c[nH]c2ccccc12)[C@H](Cc1ccccc1)NC(=O)[C@H](CCCc1ccccc1)[C@H](O)C(=O)NO [Example 27],2.7 nM
12,CON=C(c1c[nH]c2ccccc12)[C@H](Cc1ccccc1)NC(=O)[C@@H](CC(=O)NO)CC(C)C [Example 30],320 nM
13,C=CC[C@H](C(=O)NO)[C@@H](CC(C)C)C(=O)N[C@@H](Cc1ccccc1)C(=O)c1ccccc1 [Example 18],4.5 nM
14,CC(C)C[C@H](CC(=O)NO)C(=O)N[C@@H](CC(=O)O)C(=O)c1c[nH]c2ccccc12 [Example 31],740 nM
15,C=CCCC[C@H](C(=O)NO)[C@@H](CCCc1ccc(C)cc1)C(=O)N[C@@H](Cc1ccccc1)C(=O)c1c[nH]c2ccccc12 [Example 8],8.6 nM
16,CC(C)C[C@H](CC(=O)NO)C(=O)N[C@@H](Cc1ccccc1)C(=O)c1c[nH]c2ccccc12 [Example 5],5.6 nM
17,C=CCCC[C@H](C(=O)O)[C@@H](CCCc1ccc(C)cc1)C(=O)N[C@@H](Cc1ccccc1)C(=O)c1c[nH]c2ccccc12 [Example 7],8 nM
18,C=CCCC[C@H](C(=O)NO)[C@@H](CC(C)C)C(=O)N[C@@H](Cc1ccccc1)C(=O)c1c[nH]c2ccccc12 [Example 2],3.6 nM
19,CC(C)C[C@@H](C(=O)N[C@H](Cc1ccccc1)C(=O)c1c[nH]c2ccccc12)[C@H](O)C(=O)O [Example 11],93000 nM
20,O=C(c1c[nH]c2ccccc12)[C@H](Cc1ccccc1)NC(=O)[C@@H](CCCc1ccccc1)[C@H](O)C(=O)NO [Example 28],320 nM
21,CC(C)C[C@@H](C(=O)N[C@@H](Cc1ccccc1)C(=O)c1ccccc1)[C@H](O)C(=O)NO [Example 15],27 nM
